Experimental data reported in patent publication US6500443B1, “Delivery of a sacrificial substrate to inhibit protease permeation into skin” (Kimberly-Clark Worldwide, Inc., priority 1999, dated 2002).

Conditions: excised skins, modified FRANZ diffusion cells, over a 36 hour period, from treated fabric
Description: The fabrics were then tested for topical delivery of the zinc salt using excised skins in modified FRANZ diffusion cells. The amount of zinc accumulating and penetrating the skin was determined over a 36 hour period.

## zinc sulfate monohydrate
  accumulation of zinc in skin: 1311 μg/g dry weight of skin
  penetration of zinc through skin: 3.2 μg/cm^2/hr
